Source: patent publication US8501755B2, “Tetrahydropyridothienopyrimidine compounds and methods of use thereof” (Bayer Intellectual Property GmbH, priority 2006, dated 2013)

Key:
Format in all cases: cell-based
N87 = assay: In vitro tumor cell proliferation assay (Cell Titer-Glo) in N87 cells; details: N87 human gastric carcinoma overexpressing HER2 and HER1; 72 hours exposure; read-out: IC50, activities in N87 cell lines
Procedure, shortened: (§1)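 Viability after 72 h drug exposure at 37 °C was read as CellTiter-Glo ATP luminescence, giving IC50. Cells (2.5×10^3/well, RPMI + 10% FBS) were compound-treated one day post-seeding, 0.1% DMSO final: A431 overexpresses HER1, N87 overexpresses HER2 and HER1.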

H1975 cells = assay: In vitro tumor cell proliferation assay (Cell Titer-Glo) in H1975 cells; details: NCI-H1975; H1975 human NSCLC expressing mutant HER1 (L858R,T790M); 72 hours exposure; read-out: IC50, activities in H 1975 cell lines
Procedure, shortened: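 After 72 h compound exposure at 37° C (top 10 uM down to 64 pM, 0.1% DMSO), viability of EGFR L858R/T790M-mutant H1975 cells was read as ATP luminescence.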

A431 cells = assay: In vitro tumor cell proliferation assay (Cell Titer-Glo) in A431 cells; details: Homo sapiens, A-431, 72 h, A431 human epidermoid carcinoma overexpressing HER1; 72 hours exposure; read-out: IC50, activities in A431 cell lines
Procedure, shortened: as §1

IC50 (N87): < 200 nM
IC50 (H1975 cells): 200 to 1000 nM
IC50 (A431 cells): 200 to 1000 nM
Compound: CC(C)N(C/C=C/C(=O)N1CCc2c(sc3ncnc(Nc4ccc(Cl)c(Cl)c4)c23)C1)C(C)C [Example 209, N-(3,4-dichlorophenyl)-7-[(2E)-4-(diisopropylamino)but-2-enoyl]-5,6,7,8-tetrahydropyrido [4′,3′:4,5]thieno[2,3-d]pyrimidin-4-amine]
